Laboratory results taken from US20240198337A1, “Bone Marrow on a Chip” (NEW YORK UNIVERSITY, priority 2021, published 2024).

Tests used:
[1] = test system: ETV6-RUNX1+ REH and Ph+ SUP-B15 human B-ALL cell lines; assay: Chemo-resistance of engineered human B-ALL BM niches to increasing doses of vincristine (Leukemia-on-a-Chip); type: cell-based; details: B-ALL co-cultured with niche cells
Text: FIG. 4A through FIG. 4G depicts modeling the leukemic bone marrow (BM) niche in a Leukemia-on-a-Chip platform. […] (FIG. 4C) The Hematoxylin and Eosin (H&E) staining image of the in vivo murine leukemic BM niche, with the enlarged area from showing the co-localization of B-ALL cells respectively within the perivascular and endosteal niches. (FIG. 4D) The chemo-resistance was compared between the engineered human BM niches of ETV6-RUNX1+ REH and Ph+ SUP-B15 B-ALL. Each drug concentration had >3 experimental replicates. (FIG. 4E) The cytokine profiles from two B-ALL blasts with and without niche cells were quantified using membrane-based ELISA analysis. (FIG. 4F) The quantification of nuclear (nuc)/cytoplasmic (cyto) ratio of NF-κB in REH and SUP B-ALL within their respective niche models. The ratios for REH and SUP were manually measured from 3 experimental replicates (N>150). […]
The outcome of drugs was defined by the viability of B-ALL cells as a cytotoxic end point after drug treatment. […] The cell viability was quantitatively determined by using Calcein-AM (Thermo Fischer Scientific) and DAPI, which respectively stained the live and dead cells. […] Afterward, cells were observed under a fluorescence microscope, and cellular viability was quantitatively measured by counting the number of objects in the green (live cells) and red (dead cells) channels. […]

murine Ph+ B-ALL cells = assay: Drug resistance testing: B-ALL cell viability in 3D hydrogel devices (Calcein-AM/DAPI); type: cell-based; details: NIL 1 μM, PRE 1 μM, VCR 0.1 μM; for B-ALL drug-induced cell death (chemo-resistance): presence of niche cells
Method: The outcome of drugs was defined by the viability of B-ALL cells as a cytotoxic end point after drug treatment. B-ALL cells were cultured alone or co-cultured with niche cells in 3D hydrogel devices for 24 hr, and then incubated with 1 μM nilotinib (NIL, Cayman Chemical), 1 μM prednisone (PRE, Sigma), and 0.1 μM vincristine (VCR, Sigma) for 48 hr. The cell viability was quantitatively determined by using Calcein-AM (Thermo Fischer Scientific) and DAPI, which respectively stained the live and dead cells. Briefly, cells were rinsed thrice with PBS and incubated with Calcein-AM and DAPI ([…] and 5 μg/mL in PBS or medium) solution for 30 min at 37° C., followed by a final rinse with PBS. Afterward, cells were observed under a fluorescence microscope, and cellular viability was quantitatively measured by counting the number of objects in the green (live cells) and red (dead cells) channels. Untreated groups of B-ALL cells were used as controls to benchmark the drug resistance of different groups.

REH B-ALL blasts = assay: REH viability cultured with hematopoietic cells under VCR treatment; type: cell-based, human; details: 48 hr treatment of 20 nM VCR; co-culture with CD34+ HSPC-derived hematopoietic cells
Text: FIG. 13A through FIG. 13L depict the results of niche cells functioning disparately to regulate leukemia progression. (FIG. 13A) Membrane-based ELISA analysis of CXCL12 secretion of ECs (Top left) and MSCs (Top right). Western blotting of CXCL12 expression of ECs (Bottom left) and MSCs (Bottom right). (FIG. 13B) VCAM-1 expression of ECs and the quantification result (N>200). (FIG. 13C) OPN expression of 2D cultured MSCs and the quantification result (N>200). (FIG. 13D) The correlation between distance of B-ALL to MSCs and dye retaining ability of B-ALL (N>120). B-ALL with lower DiD intensity was excluded as indicated by the dash line. (FIG. 13E) and (FIG. 13F) The flow cytometric images showing DiD dye retained in B-ALL, i.e. low (Lo), middle (Mid), and high (Hi) intensity. (FIG. 13G) The representative images showing p21 expression in B-ALL located in the perivascular and endosteal niches (N=54). (FIG. 13H) B-ALL viability in the two niches treated with different drugs. (FIG. 13I) NF-κB activation in REH after co-cultured with hematopoietic cells. […] (FIG. 13L) The quantified number of CD34+ cells. […]
The contributing mechanisms from hematopoietic cells was then investigated. […] Furthermore, healthy bone marrow mononuclear cells were cultured with and without REH blasts in the leukemia systems for day 1 and day 9 and the number of CD34+ cells was quantified. […]

CC[C@]1(O)C[C@H]2CN(CCc3c([nH]c4ccccc34)[C@@](C(=O)OC)(c3cc4c(cc3OC)N(C=O)[C@H]3[C@@](O)(C(=O)OC)[C@H](OC(C)=O)[C@]5(CC)C=CCN6CC[C@]43[C@@H]65)C2)C1 [vincristine]
chemotherapy sensitivity (chemo-resistance) of REH versus SUP BM niches [1]: SUP B-ALL co-cultured with niche cells showing more resistant to VCR than REH co-cultured with niche cells | viability of B-ALL cells in perivascular versus endosteal niche (murine Ph+ B-ALL cells; 2-day treatment): a stronger dormancy and chemo-resistance of B-ALL cells in the endosteal niche | B-ALL eradication (viability) (murine Ph+ B-ALL cells; absence of niche cells, 48 hr): efficient B-ALL eradication | B-ALL drug-induced cell death (chemo-resistance) (murine Ph+ B-ALL cells; 48 hr): chemo-resistance phenomenon was confirmed | B-ALL drug-induced cell death (chemo-resistance) (murine Ph+ B-ALL cells; 48 hr, listed as VCR): partial rescue of drug-induced cell death | REH viability / chemo-resistance with hematopoietic cells (REH B-ALL blasts): hematopoietic cells also promoted NF-κB activation in B-ALL cells and chemo-resistance to VCR treatment
